Laboratory results reported in the supplement of paper PMC10307832.

How the values were obtained:
Test in all cases: relative viability (nuclei count vs DMSO), 5 days (fraction); higher = more cells survive
Alisertib + Bortezomib = compound: COc1cc(Nc2ncc3c(n2)-c2ccc(Cl)cc2C(c2c(F)cccc2OC)=NC3)ccc1C(=O)O [Alisertib] + CC(C)C[C@H](NC(=O)[C@H](Cc1ccccc1)NC(=O)c1cnccn1)B(O)O [Bortezomib] (partner 0.002 µM)
Outline: (§1)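 A single step with final 0.05% Triton X-100, 1% formaldehyde and 1 ug/ml Hoechst fixed the cells and stained nuclei 5 days after treatment. Lung cancer cell lines in 1536-well plates had been treated by pin tool the day after seeding with one drug alone or a fixed anchor-drug dose plus five library-drug doses (not always all listed) in √10 steps, and nuclei were counted on 4× images. Relative viability is the ratio of nuclei in treated wells to nuclei in vehicle wells, taken as the median of duplicate plates.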

Alisertib + Trametinib = compound: COc1cc(Nc2ncc3c(n2)-c2ccc(Cl)cc2C(c2c(F)cccc2OC)=NC3)ccc1C(=O)O [Alisertib] + CC(=O)Nc1cccc(-n2c(=O)n(C3CC3)c(=O)c3c(Nc4ccc(I)cc4F)n(C)c(=O)c(C)c32)c1 [Trametinib] (partner 0.02 µM)
Outline: as §1

Alisertib + Olaparib = compound: COc1cc(Nc2ncc3c(n2)-c2ccc(Cl)cc2C(c2c(F)cccc2OC)=NC3)ccc1C(=O)O [Alisertib] + O=C(c1cc(Cc2n[nH]c(=O)c3ccccc23)ccc1F)N1CCN(C(=O)C2CC2)CC1 [Olaparib] (partner 8 µM)
Outline: as §1

Alisertib + Pictilisib = compound: COc1cc(Nc2ncc3c(n2)-c2ccc(Cl)cc2C(c2c(F)cccc2OC)=NC3)ccc1C(=O)O [Alisertib] + CS(=O)(=O)N1CCN(Cc2cc3nc(-c4cccc5[nH]ncc45)nc(N4CCOCC4)c3s2)CC1 [Pictilisib] (partner 1 µM)
Outline: as §1

Row | Cell Line | relative viability (Alisertib + Bortezomib; first compound 0.005 µM) | relative viability (Alisertib + Bortezomib; first compound 0.01581 µM) | relative viability (Alisertib + Bortezomib; first compound 0.05 µM) | relative viability (Alisertib + Bortezomib; first compound 0.1581 µM) | relative viability (Alisertib + Bortezomib; first compound 0.5 µM) | relative viability (Alisertib + Trametinib; first compound 0.005 µM) | relative viability (Alisertib + Trametinib; first compound 0.01581 µM) | relative viability (Alisertib + Trametinib; first compound 0.05 µM) | relative viability (Alisertib + Trametinib; first compound 0.1581 µM) | relative viability (Alisertib + Trametinib; first compound 0.5 µM) | relative viability (Alisertib + Olaparib; first compound 0.005 µM) | relative viability (Alisertib + Olaparib; first compound 0.01581 µM) | relative viability (Alisertib + Olaparib; first compound 0.05 µM) | relative viability (Alisertib + Olaparib; first compound 0.1581 µM) | relative viability (Alisertib + Olaparib; first compound 0.5 µM) | relative viability (Alisertib + Pictilisib; first compound 0.005 µM) | relative viability (Alisertib + Pictilisib; first compound 0.01581 µM) | relative viability (Alisertib + Pictilisib; first compound 0.05 µM) | relative viability (Alisertib + Pictilisib; first compound 0.1581 µM) | relative viability (Alisertib + Pictilisib; first compound 0.5 µM)
1 | NCI-H838 | 0.774 | 0.655 | 0.422 | 0.25 | 0.158 | 0.432 | 0.49 | 0.269 | 0.146 | 0.129 | 0.673 | 0.552 | 0.324 | 0.169 | 0.152 | 0.377 | 0.379 | 0.274 | 0.189 | 0.113
2 | NCI-H1355 | 1.18 | 1.22 | 0.993 | 0.368 | 0.206 | 0.39 | 0.411 | 0.355 | 0.187 | 0.153 | 0.575 | 0.476 | 0.191 | 0.152 | 0.159 | 0.37 | 0.374 | 0.28 | 0.181 | 0.164
3 | NCI-H1437 | 0.489 | 0.457 | 0.191 | 0.191 | 0.114 | 0.391 | 0.489 | 0.279 | 0.21 | 0.179 | 0.585 | 0.47 | 0.383 | 0.257 | 0.179 | 0.341 | 0.378 | 0.219 | 0.123 | 0.0875
4 | NCI-H1650 | 0.175 | 0.21 | 0.174 | 0.182 | 0.199 | 0.558 | 0.565 | 0.295 | 0.145 | 0.191 | 0.813 | 0.61 | 0.16 | 0.163 | 0.204 | 0.527 | 0.461 | 0.328 | 0.151 | 0.166
5 | NCI-H1651 | 0.87 | 0.928 | 0.526 | 0.339 | 0.194 | 0.799 | 0.654 | 0.52 | 0.258 | 0.154 | 0.166 | 0.157 | 0.12 | 0.112 | 0.126 | 0.51 | 0.429 | 0.289 | 0.161 | 0.121
6 | NCI-H1666 | 0.694 | 0.597 | 0.505 | 0.317 | 0.267 | 0.839 | 0.738 | 0.679 | 0.612 | 0.501 | 0.739 | 0.739 | 0.706 | 0.629 | 0.511 | 0.389 | 0.355 | 0.227 | 0.21 | 0.214
7 | NCI-H1734 | 0.775 | 0.621 | 0.383 | 0.227 | 0.175 | 0.678 | 0.73 | 0.381 | 0.238 | 0.163 | 0.591 | 0.531 | 0.289 | 0.315 | 0.172 | 0.427 | 0.4 | 0.283 | 0.226 | 0.17
